Like-named read-outs stand apart in the source and are kept apart here.

Consider 7 compounds from patent publication US20160271248A1, “CXCR4 UP- AND DOWN-REGULATION FOR TREATMENT OF DISEASES OR DISORDERS” (priority 2013, published 2016).

The test system of experiment [1] is layer 2/3 pyramidal neurons in the prefrontal cortex. In kind it is cell-based, rat.
Experiment [2] relates to Rat cortical neurons. It counts as cell-based. Conditions: for effect on CXCL12-induced increase of spine density: AMD3100 100 ng/ml 20 min or PTx 100 ng/ml 18 hrs before CXCL12 (20 nM, 3 hours). Here is the method:
(§1) Rat cortical neurons were cultured in the presence of a glial feeder layer, using the bilaminar cell culture model. Due to the presence of glia this culture system largely preserves the in vivo mechanisms of neuronal growth and differentiation, but also allows for direct studies on neurons, which were separated from glia at the time of analysis. Selected experiments were performed using glia-free neuronal cultures, as noted, using previously described protocols (Sengupta et al., 2009, J. Neurosci. 29:2534-2544). Neurons were transfected at the time of plating by Nucleofection (Amaxa), or after 8 days in culture by lipofectamine (Invitrogen). All experiments were conducted at 21 DIV, unless otherwise noted. HDAC4 and control (scrambled) siRNA were obtained from Ambion (s170677 and 4390843), and FHC/scrambled shRNA from GenScript (custom order; shRNA vector also expressed GFP).
For in vitro experiments, neurons were cultured in the presence of glia for 21 days, then fixed and stained for MAP2 (Millipore, 1:1000; detected with Goat antirabbit Alexa 568, Invitrogen 1:250) and counterstained with phalloidin (Invitrogen, 25 μg/mL). For FHC shRNA experiments neurons were identified and analyzed using incorporated GFP expression. Images were acquired with a Zeiss LSM5 laser scanning confocal microscope, using a 63× objective. Dendritic spines were defined as phalloidin- or GFP-positive protrusions clearly connected to the dendrite by a thin shaft. For each neuron 3-4 segments totaling at least […] in length were added to measure spine density, and each neuron was represented as a single data point. Each experiment included 3-4 coverslips from each of 2 or more separate preparations. For in vivo experiments, dendritic spines were visualized using a Golgi stain kit, following instructions from the manufacturer (FD NeuroTechnologies). Brains were rapidly removed, rinsed in H2O, and incubated in the Golgi stain for 2 weeks. The tissue was then cryoprotected in sucrose at 4° C. for 7 days, and frozen in isopentane. Brains were sectioned by cryostat at a thickness of 180 μm, and mounted on gelatin-coated microscope slides. Sections were allowed to dry overnight, and a signal intensification step performed before dehydrating, clearing in xylene, and coversliping with Permount (Fisher Scientific). Spine analysis was performed using Neurolucida software equipped with a 100× objective (FIG. 7A). Pyramidal neurons in layer 2-3 of prefrontal cortex were identified and reconstructed in their entirety, and total spine density for each neuron was reported as a single data point. 3 neurons were analyzed from each brain, and 4-5 brains used for each experimental group.

Experiment [3] concerns layer II/III pyramidal neurons of the prefrontal cortex. The experiment is described as follows: In vivo dendritic spine analysis (Golgi stain, Neurolucida). Also on record: species or system rat.
Experiment [4] relates to HOS cells. Put plainly: Calcein assay (labile iron pool). In kind it is cell-based, human. Conditions: DFO 100 µM, six hours; empty vector HOS cells. On the procedure: HOS cells transfected with either empty vector (EV), wild type FHC (WT-FHC) or FHC 222 mutant (Mut-FHC) were plated in 96-well plates at 20,000 cells per well. After 24 hours of serum starvation, vehicle or the iron chelator DFO ([…]) were added, respectively, to the untreated EV wells (Control) and to the positive control wells (DFO). Six hours later all cells were washed with PBS, and loaded with the iron-binding dye calcein (200 μg/mL) for 20 minutes. Cells were then washed again in PBS, and calcein fluorescence measured (excitation 485 nm, emission 535 nm), as a measure of the labile iron pool.
Human osteosarcoma cells expressing high levels of CXCR4 (HOS-X4) were transfected with either of these FHC plasmids and selected to generate stable cell lines. First, in order to confirm the differential effects of these proteins on iron sequestration, free intracellular iron levels were compared using the fluorescent probe calcein. Calcein is delivered as a calcein-AM ester, which passes across the plasma membrane into cells and is cleaved by cytosolic esterases to produce membrane-impermeable calcein. The fluorescence of this trapped calcein is quenched following chelation with labile iron, and therefore the degree of quenching is a commonly used estimation of free intracellular iron levels.

Experiment [5] deals with FHC. Put plainly: Neuronal FHC protein levels by Western blot in cultured cortical neurons. In kind it is cell-based, rat. Conditions: for FHC protein levels: neurons in the absence of glia, 0.5 to 30 ng/mL, vs vehicle. On the procedure: as §1
(§2) Protease and phosphatases inhibitors were added to both buffers.
Rat cortical neurons were cultured in serum-free media in the presence of a glial feeder layer (Shimizu, et al., 2011, J. Vis. Exp. 57). This culture system largely preserves the in vivo environment, due to the presence of glia; however, it still enables direct investigation of neurons that can be separated by the glia before experiments. Selected studies were also performed in neurons grown in the absence of glia for the entire culture period, as indicated (Sengupta, et al., 2009, J. Neurosci. 29(8):2534-44). All experiments were conducted between 8-13 days in vitro (DIV).
Total protein extracts were obtained using standard protocols. […] The following antibodies were used: anti-FHC (3998, Cell Signaling Technology, 1:1,000) and anti-β-actin (A2066, Sigma-Aldrich, 1:5,000).
A general note: A western blot detects proteins with antibodies after separation by electrophoresis.

For experiment [6], the system named is FHC. Put plainly: Multispectral imaging of FHC optical density within MAP2+ neurons, non-human primate. It counts as in vivo, rhesus macaque. Particulars: morphine 3 then 5 mg/kg 3 times daily, 90-110 days; frontal cortex.
Experiment [7] concerns pCXCR4-Ser339. The experiment is described as follows: Multispectral imaging of pCXCR4 optical density within MAP2+ neurons, non-human primate. It counts as in vivo, rhesus macaque. Particulars: morphine treated macaques; frontal cortex.
Experiment [8] concerns CXCR4. Put plainly: Multispectral imaging of total CXCR4 optical density within MAP2+ neurons, non-human primate. In kind it is in vivo, rhesus macaque. Conditions: morphine treated macaques; frontal cortex.
For experiment [9], the system named is HDAC4. The experiment is described as follows: Nuclear HDAC4 levels by immunocytochemistry and western blot. Particulars: pure neuronal culture; CXCL12 20 nM, 30 min. In kind it is cell-based, rat. Here is the method: as §2
Neurons were fixed in 4% paraformaldehyde, and stained with MAP2 (Millipore, 1:1000) and HDAC4 (Epigentek, 1:150), detected with cy2- and cy3-conjugated secondary antibodies. Cell nuclei were visualized with Hoechst (Invitrogen, 1:2000), and images were acquired with a Zeiss LSM5 laser scanning confocal microscope (Imager.Z1m), mounting 10, 20, 40, and 63× objectives.

Experiment [10] concerns FHC. Put plainly: FHC transcript levels in neurons. It counts as cell-based, rat. Conditions: neurons in the absence of glia.
The mark [11] stands for this setting: AMD3100 1 μg ICV, 6 hours, CXCL12 20 nM, 3 hours slice incubation.
Setting [12] is: held at −70 mV, picrotoxin, AMD3100 ICV or CXCL12 20 nM 3 hrs.

In experiment [1], `c1cc(CN2CCCNCCNCCCNCC2)ccc1CN1CCCNCCNCCCNCC1` [AMD3100, 1,1′-[1,4-phenylenebis (methylene)]bis[1,4,8,11-tetraazacyclotetradecane], reference compound] returned a 20-80% rise time of 0.31 ± 0.02 ms, an after hyperpolarization of −12.8 ± 1.5 mV, a mEPSC amplitude of 16.55±0.55 pA and a mEPSC frequency of 2.27±0.33 Hz. Also, in [1], the peak spike amplitude amounted to 72.6 ± 5.3 mV, the resting membrane potential is −76.9 ± 2.3 mV, the spike half-width is 1.3 ± 0.12 ms and the “spike number generation in response to varying step currents” value is listed as “no drug effect on spike number generation”. The spike threshold in experiment [1] is −38.4 ± 3.0 mV. In [1] (setting [11]), this compound gave an input resistance of 138.3 ± 9.5 M′Ω. In experiment [1] (setting [12]), this compound displayed a sEPSC amplitude of 16.79±0.80 pA and a sEPSC frequency of 3.84±0.65 Hz. Besides, the “effect on CXCL12-induced increase of spine density” value in [2] was “blocked”. Moreover, in experiment [3] (osmotic pump into left lateral ventricle, 0.75 μg/hour for 4 days), the dendritic spine density result is “similarly able to decrease dendritic spine densities”. Moreover, in experiment [3] (single 1 μg ICV injection, 3-week-old rats, 6 hours post-injection), the dendritic spine density entry is given as “significantly decreased spine densities”.

As to `CC(=O)N(O)CCCCCNC(=O)CCC(=O)N(O)CCCCCNC(=O)CCC(=O)N(O)CCCCCN` [DFO, desferrioxamine], the calcein fluorescence result in experiment [4] is “increased”.

For the compound `CN1CC[C@]23c4c5ccc(O)c4O[C@H]2[C@@H](O)C=C[C@H]3[C@H]1C5` [morphine], in experiment [2] (FHC-specific shRNA vs scrambled), the “ability of morphine to regulate spines in FHC-deficient neurons” value is given as “blocked”. Moreover, in experiment [2] (morphine 1 μm, 24 hours, 21 days culture), the “number of dendritic spines” value is “significant decrease in the number of dendritic spines”. Moreover, the FHC levels result in experiment [5] (cultured rat cortical neurons, morphine 1 μm, 24 hours) was “significantly increases FHC levels”. Further, the “neuronal FHC (OD within MAP2+ neurons)” value in [6] was “significantly elevated”. Further, the “neuronal pCXCR4 levels” value in [7] is “significant reduction in pCXCR4 levels”. Moreover, in experiment [8], the “total neuronal CXCR4 levels” value was “unchanged”.

In experiment [1], “CXCL12: recombinant chemokine CXCL12 from Peprotech, endogenous CXCR4 ligand” returned a mEPSC amplitude of 25.25±1.02 pA, a mEPSC frequency of 1.43±0.25 Hz, a resting membrane potential of −76.1 ± 2.3 mV and a sEPSC amplitude of 25.32±0.43 pA. In [1], the sEPSC frequency was 1.85±0.41 Hz. In [1] (setting [11]), the 20-80% rise time was 0.29 ± 0.01 ms, the after hyperpolarization was −12.0 ± 0.9 mV, the input resistance was determined as 121.8 ± 13.2 M′Ω and the peak spike amplitude came out at 74.0 ± 2.8 mV. In experiment [1] (setting [11]), this compound showed a spike half-width of 1.2 ± 0.07 ms and a spike threshold of −42.9 ± 2.3 mV. In addition, the “spike number generation in response to varying step currents” value in [1] (current clamp, AMD3100 ICV or CXCL12 ex vivo vs vehicle) is recorded as “no drug effect on spike number generation”. The dendritic spine density result in [2] (21 days culture with glial feeder layer, CXCL12 20 nM, 3 hours) was “moderate but significant increase in spine density”. In addition, the “effects of CXCL12 on spine density in HDAC4-deficient neurons” value in experiment [2] (HDAC4-specific siRNA, pure neuronal population) is recorded as “completely prevented”. Moreover, the dendritic spines entry in experiment [2] (pure neuronal population, 21 days, 20 nM CXCL12, multiple time points) is on record as “time-dependent increase in dendritic spines”. The “nuclear HDAC4 levels” value in experiment [9] is recorded as “increased nuclear HDAC4 levels”.

With “IL-1β: Recombinant IL-1β, proinflammatory cytokine, R&D Systems”, the FHC protein levels result in [5] was “significant increase of FHC protein levels”. The FHC transcript levels entry in experiment [10] is recorded as “did not affect levels of FHC mRNA”.

Consider TNF-α, for which, in experiment [5], the FHC protein levels entry is given as “significant increase of FHC protein levels”. In addition, the FHC transcript levels result in experiment [10] was “increased”.

Regarding pertussis toxin, in experiment [2], the “effect on CXCL12-induced increase of spine density” value is on record as “blocked”.
